Reference: ChEMBL document CHEMBL5385845, “Novel coumarin aminophosphonates as potential multitargeting antibacterial agents against Staphylococcus aureus” (Eur J Med Chem, 2023)
≈ marks a conversion by molar mass, not a printed value. Calls of active or inactive are those of the source. No cut-off for these calls is given here.

How the values were obtained:
Staphylococcus aureus [1] = assay: Antibacterial activity against Staphylococcus aureus assessed as inhibition of bacterial growth at 1 to 4 times MIC incubated for 4 hrs; format: functional, organism-based
Staphylococcus aureus [2] = assay: Antibacterial activity against Staphylococcus aureus assessed as fold increase in RNS production at 8 times MIC by griess reagent-based analysis; format: functional
Enterococcus faecalis = assay: Antibacterial activity against Enterococcus faecalis assessed as inhibition of bacterial growth; format: functional
Cell membrane [3] = assay: Induction of cell membrane permeabilization in Staphylococcus aureus by propidium iodide dye-based fluorescence assay
Staphylococcus aureus [4] = assay: Antibacterial activity against methicillin resistant Staphylococcus aureus N315 assessed as inhibition of bacterial growth; format: functional
Staphylococcus aureus [5] = assay: Antibacterial activity against Staphylococcus aureus assessed as reduction in cellular metabolic activity by resazurin staining based assay; format: functional, organism-based
Staphylococcus aureus [6] = assay: Synergistic antibacterial activity against Staphylococcus aureus assessed as fractional inhibitory concentration index in presence of norfloxacin; format: functional
[7] = Hemolytic activity in RBC (unknown origin) assessed as hemolysis at 256 ug/ml incubated for 6 hrs relative to control; format: toxicity, cell-based, Erythrocyte; settings: red blood cells (erythrocytes), at 256 µg/mL, read-out: Activity
Cell membrane [8] = assay: Induction of cytoplasmic membrane depolarization in Staphylococcus aureus assessed as increase in fluorescence intensity measured at 10 mins by DiSC3(5) dye-based fluorescence assay; format: subcellular
Escherichia coli [9] = assay: Synergistic antibacterial activity against Escherichia coli ATCC 25922 assessed as fractional inhibitory concentration index in presence of norfloxacin; format: functional
Escherichia coli [10] = assay: Synergistic antibacterial activity against Escherichia coli ATCC 25922 assessed as inhibition of bacterial growth in presence of norfloxacin; format: functional
Calf thymus DNA [11] = assay: Binding affinity to calf thymus DNA by DAPI staining based competitive binding assay; format: nucleic-acid assay; settings: Bos taurus
Staphylococcus aureus [12] = assay: Antibacterial activity against Staphylococcus aureus assessed as reduction in bacterial biofilm formation; format: functional, organism-based
Cell membrane [13] = assay: Disruption of cell membrane integrity in Staphylococcus aureus assessed as cell membrane damage by scanning electron microscopic analysis; format: subcellular
Escherichia coli [14] = assay: Antibacterial activity against Escherichia coli assessed as inhibition of bacterial growth; format: functional
Staphylococcus aureus [15] = assay: Antibacterial activity against Staphylococcus aureus assessed as fold increase in intracellular ROS production at 8 times MIC by DCFH-DA dye based fluorometric assay relative to control; format: functional
Staphylococcus aureus [16] = assay: Antibacterial activity against Staphylococcus aureus assessed as inhibition of bacterial growth at 0.5 times MIC incubated for 4 hrs; format: functional, organism-based
Staphylococcus aureus [17] = assay: Antibacterial activity against Staphylococcus aureus ATCC 25923 assessed as inhibition of bacterial growth; format: functional
Staphylococcus aureus [18] = assay: Induction of drug resistance in Staphylococcus aureus assessed as increase in MIC measured for 16 passages; format: functional
Cell membrane [19] = assay: Disruption of cell membrane integrity in Staphylococcus aureus assessed as increase in protein leakage
Staphylococcus aureus [20] = assay: Antibacterial activity against Staphylococcus aureus assessed as increase in RNS production by griess reagent-based analysis; format: functional, organism-based
Escherichia coli [21] = assay: Antibacterial activity against Escherichia coli ATCC 25922 assessed as inhibition of bacterial growth; format: functional
Staphylococcus aureus [22] = assay: Antibacterial activity against Staphylococcus aureus assessed as inhibition of bacterial growth; format: functional
Staphylococcus aureus [23] = assay: Antibacterial activity against Staphylococcus aureus assessed as reduction in bacterial biofilm formation at 16 x MIC relative to control; format: functional; set-up: scale not given: the % may be the effect or the level left
Staphylococcus aureus [24] = assay: Induction of oxidative stress in Staphylococcus aureus assessed as decrease in GSH activity at 8 times MIC relative to control; format: functional; set-up: scale not given: the % may be the effect or the level left
Staphylococcus aureus [25] = assay: Antibacterial activity against Staphylococcus aureus assessed as effect on lipid peroxidation production at 1 to 5 times MIC incubated for 5 to 20 mins; format: functional, organism-based; settings: time 5-20 min
Staphylococcus aureus [26] = assay: Antibacterial activity against Staphylococcus aureus assessed as fold increase in malondialdehyde level at 1 to 5 times MIC; format: functional
Cell membrane [27] = assay: Induction of cell membrane depolarization in Staphylococcus aureus assessed as increase in fluorescence intensity by DiSC3(5) dye-based fluorescence assay
Staphylococcus aureus [28] = assay: Synergistic antibacterial activity against Staphylococcus aureus assessed as inhibition of bacterial growth in presence of norfloxacin; format: functional
Klebsiella pneumoniae = assay: Antibacterial activity against Klebsiella pneumoniae assessed as inhibition of bacterial growth; format: functional
Cell membrane [29] = assay: Induction of cell membrane permeabilization in Staphylococcus aureus by calcein-AM dye-based fluorescence assay; format: subcellular
Calf thymus DNA [30] = assay: Binding affinity to calf thymus DNA assessed as intercalation by measuring hypochromic shift by UV-Vis spectroscopic analysis; format: nucleic-acid assay; settings: Bos taurus
Pseudomonas aeruginosa [31] = assay: Antibacterial activity against Pseudomonas aeruginosa ATCC 27853 assessed as inhibition of bacterial growth; format: functional
Pseudomonas aeruginosa [32] = assay: Antibacterial activity against Pseudomonas aeruginosa assessed as inhibition of bacterial growth; format: functional
Staphylococcus aureus [33] = assay: Antibacterial activity against Staphylococcus aureus ATCC 29213 assessed as inhibition of bacterial growth; format: functional
Acinetobacter baumannii = assay: Antibacterial activity against Acinetobacter baumannii assessed as inhibition of bacterial growth; format: functional
Calf thymus DNA [34] = assay: Binding affinity to calf thymus DNA by acridine orange staining based competitive binding assay; format: nucleic-acid assay; settings: Bos taurus

SMILES: CCOP(=O)(OCC)C(Nc1ccc2c(C)cc(=O)oc2c1)c1cccc(O)c1 (configuration not stated)
- Activity (Staphylococcus aureus [1]): Active
- fold change (FC) (Staphylococcus aureus [2]): 2.2
- MIC (Enterococcus faecalis): 16 mg/L (≈ 38.3 µM)
- Activity (Cell membrane [3]): Dose-Dependent Effect
- MIC (Staphylococcus aureus [4]): 32 mg/L (≈ 76.7 µM)
- Activity (Staphylococcus aureus [5]): Dose-Dependent Effect
- fractional inhibitory concentration index (FICI) (Staphylococcus aureus [6]): 0.25
- hemolysis at 6 h, 256 ug/ml [7]: < 4%
- Activity (Cell membrane [8]): Active
- fractional inhibitory concentration index (FICI) (Escherichia coli [9]): 0.75
- MIC (Escherichia coli [10]): 1 mg/L
- Activity (Calf thymus DNA [11]): Active
- Activity (Staphylococcus aureus [12]): Dose-Dependent Effect
- Activity (Cell membrane [13]): Active
- MIC (Escherichia coli [14]): 64 mg/L (≈ 153 µM)
- fold change (FC) (Staphylococcus aureus [15]): 3.7
- Activity (Staphylococcus aureus [16]): Active
- MIC (Staphylococcus aureus [17]): 8 mg/L (≈ 19.2 µM)
- Activity (Staphylococcus aureus [18]): inactive
- Activity (Cell membrane [19]): Dose-Dependent Effect
- Activity (Staphylococcus aureus [20]): Dose-Dependent Effect
- MIC (Escherichia coli [21]): 4 mg/L (≈ 9.58 µM)
- MIC (Staphylococcus aureus [22]): 0.5 mg/L (≈ 1.2 µM)
- Activity (Staphylococcus aureus [23]): 30%
- Activity (Staphylococcus aureus [24]): 16%
- Activity (Staphylococcus aureus [25]): inactive
- fold change (FC) (Staphylococcus aureus [26]): 2
- Activity (Cell membrane [27]): Dose-Dependent Effect
- MIC (Staphylococcus aureus [28]): 0.063 mg/L
- MIC (Klebsiella pneumoniae): 64 mg/L (≈ 153 µM)
- Activity (Cell membrane [29]): Dose-Dependent Effect
- Activity (Calf thymus DNA [30]): Dose-Dependent Effect
- MIC (Pseudomonas aeruginosa [31]): 64 mg/L (≈ 153 µM)
- MIC (Pseudomonas aeruginosa [32]): 16 mg/L (≈ 38.3 µM)
- MIC (Staphylococcus aureus [33]): 16 mg/L (≈ 38.3 µM)
- MIC (Acinetobacter baumannii): 16 mg/L (≈ 38.3 µM)
- Activity (Calf thymus DNA [34]): Active
